Reference: patent US5229265A, “Process for analyzing clastogenic agents” (Litron Laboratories, priority 1990, dated 1993)

Tested on: polychromatic cells (PCEs)
Test: PCE count in blood by flow cytometry
Format: in vivo, mouse
Details: mice dosed with DMBA
Experimental: When two dyes are used for simultaneous micronucleus and PCE discrimination, the cell suspension is prepared as follows: The Hoechst 33258 working solution described above is prepared and is filtered through an 0.2 micron Acro-disk (Gilman Sciences). In addition, a propidium iodide (PI) working solution is prepared (5 mg PI/100 ml phosphate buffered saline (PBS)). A buffer-dye solution is then prepared by adding the PI solution (100 μl) and Hoechst 33258 working solution (25 μl) to PBS (867.5 μl). The resulting buffer-dye solution is then dispensed (992.5 μl) into samples tubes. A sample of fixed blood (15 μl) is then added to the corresponding tube. When blood from a malaria (P. berghei) infected mouse was fixed and stained by this procedure, the bivariate pattern shown in FIG. 1B resulted, in which a stronger red fluorescence signal was obtained. In this case, good resolution is achieved if BSA is omitted from the stained cell suspension. The pH of the stained solution is important for good fluorescence emission profiles and resolution of the different cell populations. With Hoechst 33258 and propidium iodide, good results can be obtained in the range from pH 6 to pH 8. Lower or higher pH levels cause a broadening of the fluorescence patterns which adversely affect the resolution of the PCes and micronucleated cells. Operationally,it is advisable to store the fixed samples and analyze freshly stained samples.
Although it is inappropriate to directly compare the number of MNs in the 0 hr and 96 hr samples because of this PCE change, it is possible to normalize the data to take into account said change. An increase in the number of PCEs will cause a decrease in the total number of MNs counted in the PCE window for a 96 hour sample. […]
Another staining embodiment of this invention involves the use of dual parameter data acquisition in conjunction with two dyes, Hoechst 33258 and propidium iodide so as to analyze both MNs and PCEs. […] Propidium iodide endows the PCEs with a strong red fluorescence signal which pulls them out of the RBC contour. […]

Cc1c2ccccc2c(C)c2c1ccc1ccccc12 [DMBA, dimethyl benzathracene]
production of PCEs: production of PCEs is suppressed
